Read-outs that look alike come from different tables or passages of the source.
Legend:
Treponema denticola = experiment: MIC of Hyg A against Treponema denticola strains (broth dilution, phenol red); format: cell-based; conditions: for MIC: Treponema denticola
[1] = system: Streptococcus salivarius ATCC13419; experiment: MIC of Hyg A against S. salivarius; format: cell-based
[2] = system: Fusobacterium nucleatum (ATCC 25586); experiment: MIC of Hyg A against F. nucleatum ATCC 25586; format: cell-based; conditions: ATCC25586
[3] = system: Fusobacterium nucleatum (ATCC 25586); experiment: MBC of Hyg A against F. nucleatum ATCC 25586; format: cell-based; conditions: for MBC: ATCC25586
[4] = system: Porphyromonas gingivalis (ATCC 33277); experiment: MBC of Hyg A against P. gingivalis; format: cell-based
F. nucleatum animalis = experiment: Kirby-Bauer diffusion assay; format: cell-based, Fusobacterium nucleatum; conditions: Fusobacterium nucleatum, strain 7_1, mean (SEM), read-out: size of zone inhibition (mm)
Description: Three representatives of 6 subspecies of Fusobacterium nucleatum (F. nucleatum) for a total of 18 strains were tested in the experiment. The sub species and strains are described in Table 2.
All strains were verified by 16S V3/V6 sequence analysis prior to use. The methods described herein were performed in an anaerobic chamber at 37° C. All media and plates were degassed prior to use.
Hygromycin A (Hyg A) discs were prepared by solubilizing Hyg A in distilled water and sterile filtered. Clindamycin was used as a positive control. Defined amounts of hygromycin A (40, 20, 10 or 5 micrograms), clindamycin (2 micrograms) or sterile distilled water were absorbed onto Kirby-Bauer discs in a biosafety cabinet.
An overnight culture was grown in Wilkins-Chalgren (WC) broth and back-diluted 1:10 in fresh broth. When an OD 600 reading reached 0.5, 300 μL of the log phase culture was plated onto WC agar plates. The plates were sectioned into quadrants and a Kirby-Bauer (KB) disc impregnated with a defined amount of hygromycin A was placed in each quadrant. Plates were prepared thus in triplicate and the four amounts of hygromycin A were 40, 20 10 and 5 micrograms. The same volume of culture was spread on fourth plate sectioned into six sections for three positive and three negative controls. KB discs with water served as negative controls and KB discs impregnated with 2 micrograms of clindamycin served as positive controls. […] Table 3, Table 4, Table 5, Table 6, Table 7, Table 8 show the mean size of zone inhibitions for each of the subspecies tested using increasing concentrations of hygromycin A where the standard error of mean is represented in parenthesis.
The amount of hygromycin A was plotted against the size of the zone of inhibition for each strain tested.

MIC (Treponema denticola; ATCC35404, ATCC strain 35404, range, read-out: MIC): 0.5 to 5 µg/mL
MIC (Treponema denticola; ATCC35405, Type strain ATCC 35405, read-out: MIC): 0.2 µg/mL
MIC (Treponema denticola; T. denticola 33520, experiment 1, read-out: MIC (μg/ml) 1): 1 µg/mL
MIC (Treponema denticola; T. denticola 33520, experiment 2, read-out: MIC (μg/ml) 2): 1 µg/mL
MIC (Treponema denticola; T. denticola 33521, experiment 1, read-out: MIC (μg/ml) 1): 0.5 µg/mL
MIC (Treponema denticola; T. denticola 33521, experiment 2, read-out: MIC (μg/ml) 2): 2 µg/mL
MIC (Treponema denticola; T. denticola 35404, experiment 1, read-out: MIC (μg/ml) 1): 0.5 to 1 µg/mL
MIC (Treponema denticola; T. denticola 35404, experiment 2, read-out: MIC (μg/ml) 2): 5 µg/mL
MIC (Treponema denticola; T. denticola 35405, experiment 1, read-out: MIC (μg/ml) 1): 0.2 µg/mL
MIC (Treponema denticola; T. denticola 35405, experiment 2, read-out: MIC (μg/ml) 2): 0.2 µg/mL
MIC (Treponema denticola; T. denticola ASLM, experiment 1, read-out: MIC (μg/ml) 1): 0.5 µg/mL
MIC (Treponema denticola; T. denticola ASLM, experiment 2, read-out: MIC (μg/ml) 2): 1 µg/mL
MIC (Treponema denticola; T. denticola H1-T, experiment 1, read-out: MIC (μg/ml) 1): 0.5 µg/mL
MIC (Treponema denticola; T. denticola H1-T, experiment 2, read-out: MIC (μg/ml) 2): 0.5 µg/mL
MIC (Treponema denticola; T. denticola OTK, experiment 1, read-out: MIC (μg/ml) 1): 0.5 µg/mL
MIC (Treponema denticola; T. denticola OTK, experiment 2, read-out: MIC (μg/ml) 2): 1 µg/mL
MIC (Treponema denticola; T. denticola SP44, experiment 1, read-out: MIC (μg/ml) 1): 1 µg/mL
MIC (Treponema denticola; T. denticola SP44, experiment 2, read-out: MIC (μg/ml) 2): 1 µg/mL
MIC (Treponema denticola; T. denticola US Trep, experiment 1, read-out: MIC (μg/ml) 1): 0.5 µg/mL
MIC (Treponema denticola; T. denticola US Trep, experiment 2, read-out: MIC (μg/ml) 2): 0.5 µg/mL
MIC (Treponema denticola; across T. denticola strains, read-out: MIC values for Treponema denticola strains, typical): ~0.5 µg/mL
MIC (Treponema denticola; low passage clinical isolate ASLM, read-out: MIC (Hyg A sensitivity)): 0.2 µg/mL
MIC (Treponema denticola; low passage clinical isolate SP44, read-out: MIC (Hyg A sensitivity)): 1 µg/mL
MIC values for Treponema denticola strains, range (Treponema denticola; across T. denticola strains): 0.2 to 1.0 µg/mL
MIC ([1]; Streptococcus salivarius ATCC13419, read-out: MIC): 10 µg/mL
MIC ([1]; Streptococcus salivarius, ATCC13419, 96 h, S. salivarius, 5% CO2, extended incubation (4 days), read-out: MIC): 20 µg/mL
MIC ([1]; Streptococcus salivarius, ATCC13419, S. salivarius 13419, experiment 1, read-out: MIC (μg/ml) 1): 10 µg/mL
MIC ([1]; Streptococcus salivarius, ATCC13419, S. salivarius 13419, experiment 2, read-out: MIC (μg/ml) 2): 10 µg/mL
MIC ([1]; Streptococcus salivarius, ATCC13419, S. salivarius, 5% CO2, 24 hours incubation, read-out: MIC): 10 µg/mL
MIC ([2]; Fusobacterium nucleatum ATCC 25586, read-out: MIC): ~1 µg/mL
MIC ([2]; Fusobacterium nucleatum, F. nucleatum 25586, experiment 1, read-out: MIC (μg/ml) 1): 1 µg/mL
MIC ([2]; Fusobacterium nucleatum, F. nucleatum 25586, experiment 2, read-out: MIC (μg/ml) 2): 1 µg/mL
MIC:MBC ratio ([3]; F. nucleatum 25586): 1.0
Compound: CC(=O)[C@H]1O[C@@H](Oc2ccc(/C=C(\C)C(=O)N[C@@H]3[C@H](O)[C@@H](O)[C@H]4OCO[C@H]4[C@@H]3O)cc2O)[C@@H](O)[C@@H]1O [Hyg A, Hygromycin A]
MIC (Treponema denticola; ATCC35404, ATCC 35404, strain most tolerant, read-out: MIC): 5 µg/mL
MBC ([3]; Fusobacterium nucleatum ATCC 25586, read-out: MBC): ~1 µg/mL
MBC ([3]; Fusobacterium nucleatum, F. nucleatum 25586, experiment 1, read-out: MBC (μg/ml) 1): 1 µg/mL
MBC ([3]; Fusobacterium nucleatum, F. nucleatum 25586, experiment 2, read-out: MBC (μg/ml) 2): 1 µg/mL
MBC ([4]; ATCC33277, P. gingivalis 33277, experiment 1, read-out: MBC (μg/ml) 1): > 5 µg/mL
MBC ([4]; ATCC33277, P. gingivalis 33277, experiment 2, read-out: MBC (μg/ml) 2): > 5 µg/mL
zone of inhibition at 5 µg/disc (F. nucleatum animalis; Hyg A 5 μg per disc): 18.3 mm
zone of inhibition at 10 µg/disc (F. nucleatum animalis; Hyg A 10 μg per disc): 18 mm

Source: patent US20240350522A1, “HYGROMYCIN A FOR TREATMENT OF DISEASES AND INFECTIONS” (FLIGHTPATH BIOSCIENCES, INC., priority 2021, published 2024)
